Article PMC7129073 (Clinical Microbiology and Infection, 2015)
Converted amounts (≈) assume the structure as drawn.

Columns and labels:
[1] = test system: H.influenzae; experiment: Broth microdilution; type: cell-based, Haemophilus influenzae
[2] = test system: PRSP; experiment: Broth microdilution; type: cell-based, Streptococcus pneumoniae
[3] = test system: ERSP; experiment: Broth microdilution; type: cell-based, Streptococcus pneumoniae
[4] = test system: S. pneumoniae; experiment: Broth microdilution; type: cell-based, Streptococcus pneumoniae
[5] = test system: Streptococcus agalactiae strains P0162 and P0425; experiment: Microdilution; type: cell-based
[6] = test system: K. pneumoniae; experiment: E-test susceptibility; type: cell-based, Klebsiella pneumoniae
[7] = test system: Enterobacter spp; experiment: E-test susceptibility; type: cell-based
[8] = test system: K. pneumoniae; experiment: MIC; type: cell-based, Klebsiella pneumoniae
[9] = test system: Escherichia coli; experiment: Vitek 2 susceptibility, urine isolates of children; type: cell-based
[10] = test system: Enterobacteriaceae; experiment: SMART 2003 Europe, microdilution; type: cell-based; conditions: 1948 isolates
[11] = test system: Klebsiella; experiment: SMART 2003 Europe, microdilution; type: cell-based, Klebsiella spp.; conditions: 341 isolates
[12] = test system: E. coli; experiment: SMART 2003 Europe, microdilution; type: cell-based, Escherichia coli; conditions: 1106 isolates
[13] = test system: inducible Enterobacteriaceae; experiment: SMART 2003, intraabdominal isolates; type: cell-based
[14] = test system: Acinetobacter; experiment: Disk diffusion; type: cell-based; conditions: 37 isolates selected as resistant to beta-lactams
[15] = test system: F. necrophorum; experiment: E-test, 13 clinical isolates; type: cell-based, Fusobacterium necrophorum
[16] = test system: Salmonella serotype Enteritidis; experiment: Disk diffusion, food isolates Spain; type: cell-based; conditions: n = 96
[17] = test system: Salmonella, other 49 serotypes; experiment: Disk diffusion, food isolates Spain; type: cell-based; conditions: n = 115
[18] = test system: Salmonella serotype Typhimurium; experiment: Disk diffusion, food isolates Spain; type: cell-based; conditions: n = 53
[19] = test system: S. aureus; experiment: E-test susceptibility; type: cell-based, Staphylococcus aureus
[20] = test system: viridans group streptococci (VGS); experiment: MIC; type: cell-based; conditions: 107 strains
[21] = NCCLS breakpoints (Amox/Clav 2/1 mcg/mL)

Trimethoprim/sulfamethoxazole [TMP/SMX]
MIC90 [1]: > 4 µg/mL
%Sus ([1]; NCCLS): 76.5%
MIC90 [2]: > 8 µg/mL
%Sus [2, 21]: 13.8%
MIC90 [3]: 8 µg/mL
%Sus [3, 21]: 24.5%
MIC90 [4]: 8 µg/mL
%Sus [4, 21]: 50.2%

NC1CCN(c2c(F)cc3c(=O)c(C(=O)O)cn(C4CC4)c3c2Cl)C1 (centres unmarked) [clinafloxacin]
MIC ([5]; strain P0162 (ParC Ser79Phe, GyrA Glu85Ala)): 0.25 µg/mL (≈ 0.683 µM)
MIC ([5]; strain P0425 (ParC Ser79Phe, GyrA Glu85Lys)): 0.75 µg/mL (≈ 2.05 µM)

CN(C)c1cc(NC(=O)CNC(C)(C)C)c(O)c2c1C[C@H]1C[C@H]3[C@H](N(C)C)C(O)=C(C(N)=O)C(=O)[C@@]3(O)C(O)=C1C2=O [Tigecycline]
Susceptible isolates ([6]; ICU): 93%
Susceptible isolates ([6]; non ICU): 98%
Susceptible isolates ([7]; ICU): 91%
Susceptible isolates ([7]; non ICU): 96%

colistin
susceptibility category ([8]; BSAC): susceptible

CC(=O)OCC1=C(C(=O)O)N2C(=O)[C@@H](NC(=O)Cc3cccs3)[C@H]2SC1 [cefalothin]
susceptibility rate ([9]; paediatric surgical unit (PSU)): 19%
susceptibility rate ([9]; paediatric units (PU)): 66%

C[C@@H](O)[C@H]1C(=O)N2C(C(=O)O)=C(S[C@@H]3CN[C@H](C(=O)Nc4cccc(C(=O)O)c4)C3)[C@H](C)[C@H]12 [ertapenem]
per cent susceptible [10]: 99%
per cent susceptible [11]: 99%
MIC ([8]; Klebsiella pneumoniae): > 16 µg/mL
per cent susceptible [12]: >99%
% susceptible ([13]; A/P (N = 200)): 98%
% susceptible ([13]; EU (N = 354)): 98%
% susceptible ([13]; LA (N=113)): 91%
% susceptible ([13]; NA (N = 163)): 94%

C[C@H]1c2cccc(O)c2C(=O)C2=C(O)[C@]3(O)C(=O)C(C(N)=O)=C(O)[C@@H](N(C)C)[C@@H]3[C@@H](O)[C@@H]21 [doxycycline]
resistant isolates [14]: 54.1%
MIC range [15]: 0.016 to 0.75 µg/mL
MIC50 ([15]; Fusobacterium necrophorum): 0.064 µg/mL (≈ 0.144 µM)
MIC90 ([15]; Fusobacterium necrophorum): 0.19 µg/mL (≈ 0.428 µM)

CCn1cc(C(=O)O)c(=O)c2cc(F)c(N3CCNC(C)C3)c(F)c21 (centres unmarked) [lomefloxacin]
resistant isolates [14]: 100.0%

CCN[C@@H]1C[C@H](N)[C@@H](O[C@H]2OC(CN)=CC[C@H]2N)[C@H](O)[C@H]1O[C@H]1OC[C@](C)(O)[C@H](NC)[C@H]1O [netilmicin]
resistant isolates [14]: 5.4%
resistance rate (NCCLS M100-S13) [16]: 1%
resistance rate (NCCLS M100-S13) [17]: 0%
resistance rate (NCCLS M100-S13) [18]: 4%

CC(=O)O[C@H]1C[C@@]2(C)[C@@H](C[C@@H](O)[C@H]3[C@@]4(C)CC[C@@H](O)[C@@H](C)[C@@H]4CC[C@@]32C)/C1=C(\CCC=C(C)C)C(=O)O [fusidic acid]
Susceptibility ([19]; ICU, SRGA breakpoints, tigecycline tentative S ≤2 μg/ml): 91%
Susceptibility ([19]; non-ICU): 93%

[H]/N=C(/N)N[C@H]1[C@H](O)[C@@H](O)[C@H](O[C@@H]2O[C@@H](C)[C@](O)(C=O)[C@H]2O[C@@H]2O[C@@H](CO)[C@H](O)[C@@H](O)[C@@H]2NC)[C@@H](N/C(N)=N\[H])[C@@H]1O [streptomycin]
resistance rate (NCCLS M100-S13) [16]: 1%
high-level resistance [20]: 10.3%
resistance rate (NCCLS M100-S13) [17]: 59%
resistance rate (NCCLS M100-S13) [18]: 53%

CO[C@@]1(NC(=O)C(C(=O)O)c2ccc(O)cc2)C(=O)N2C(C(=O)O)=C(CSc3nnnn3C)CO[C@@H]21 (some centres unmarked) [moxalactam]
resistant isolates [14]: 75.7%
